Assay results: US6686354B2, “Agonists and antagonists of peripheral-type benzodiazepine receptors” (Scios, Inc., priority 1998, dated 2004)

How the values were obtained:
[1] = system: neonatal rat cardiomyocytes; assay: Protein synthesis ([3H]phenylalanine incorporation) in neonatal rat cardiomyocytes; assay type: cell-based
Text: Neonatal rat ventricular cardiomyocytes were isolated from one or two days old rat pups using the following reagents and isolation procedure:
When cardiomyocytes undergo hypertrophy several biochemical parameters can be monitored. There is an increase in protein synthesis and atrial natriuretic peptide (ANP) synthesis and an upregulation of the β-myosin heavy chain gene. These three parameters were used to assess the effects of ligands of the peripheral-type benzodiazepine receptor (PTBR) upon neonatal rat cardiomyocytes.
Protein synthesis is assessed by including radiolabelled amino acids in the experimental incubation medias (i.e., [^3H]phenylalanine) at the end of the incubation the cell monolayer is washed with phosphate bufered saline, fized with 10% TCA and lysed with 0.25N NaOH. The total cell lysate is then assessed for tritium contant by scintillation spectrometry.
a. Neonatal rat cardiomyocytes were cultured in 24-well plates for 24 hours in serum-free medium. Medium was then removed and replaced with experimental culture medium containing [^3H]phenylalanine (10 μCi/ml) and either the PTBR agonist Ro5-4864 (RBI, MA, USA) in a concentration range of 10^−12-10^−8 M, or the PTBR antagonist PK11195 (RBI, MA, US) in a concentration range of 10^−12-10^−8 M. Control incubations received [^3H]phenylalanine (10 μCi/ml) containing medium alone. Cell cultures were returned to the incubator for a further 48 hour incubation after which time the cell culture supernatants were harvested for ANP analysis and the cell monolayers were prepared for assessment of tritium incorporation. […] However, at concentrations greater than or equal to 10^−11 M, the PTBR agonist Ro5-4864 caused a three-fold increase in protein synthesis and a five-fold increase in ANP synthesis. Data are expressed as the mean+/−standard deviations of quadruplet samples.
b. Neonatal rat cardiomyocytes were cultured in 24-well plates for 24 hours in serum-free medium. Medium was then removed and replaced with experimental culture medium containing [^3H]phenylalanine (10 μCi/ml) and either the PTBR agonist Ro5-4864 (RBI, MA, USA) in a concentration range of 10^−12-10^−8 M, or the PTBR antagonist PK11195 (RBI, MA, US) at a concentration of 10^−10 M. Control incubations received [^3H]phenylalanine (10 μCi/ml) containing medium alone. Cell cultures were returned to the incubator for a further 48 hour incubation after which time the cell culture supernatants were harvested for ANP analysis and the cell monolayers were prepared for assessment of tritium incorporation. […] Data are expressed as the mean+/−standard deviations of quadruplet samples.

[2] = system: isolated perfused Langendorf rat heart; conditions: cited from earlier work
β-MHC promoter = assay: β-MHC promoter-luciferase reporter in neonatal rat cardiomyocytes; assay type: cell-based; conditions: greater than or equal to 10^-11 M; 24 hours; normalized to SEAP; FIG. 9
Description: To monitor the expression of β-MHC, β-MHC promoter-luciferase reporter plasmid was constructed. This plasmid is inserted into the cardiomyocyte cultures by liposome mediated transfection and luciferase activity in cell lysates determined following incubation. The amount of luciferase actvity is directly proportional to the level of transcription of the β-MHC gene.
c. Neonatal cardiomyocytes were cultures in 6-well plates overnight following isolation. The cell monolayers were then transfected with a β-MHC promoter-luciferase reported plasmid and a control plasmid to aid data normalization (pSEAP2 Clontech Corp) using lipofectamine liposome mediated plasmid delivery. Following recovery from the transfection, the cell cultures were treated for 24 hours in the presence and absence of the PTBR agonist Ro5-4864 at 10^−12 M, 10^−11 M and 10^−10 M. The culture supernatants were then harvested for SEAP activity and cell lysates prepared for luciferase assay. […] Data are expressed as the mean+/−standard derivations of triplicate samples.

[3] = system: guinea pig heart preparation; conditions: cited from earlier work
[4] = system: neonatal rat cardiomyocytes; assay: Morphology of neonatal rat cardiomyocyte cultures (photography); assay type: cell-based; conditions: 10^-10 M, serum-free
Description: When cardiomyocytes undergo hypertrophy, their morphology changes quite drastically. The cells become larger and more spread out so another technique employed to monitor hypertrophic effects on cardiomyocytes is to assess their morphology and document that by photography.
d. Neonatal rat cardiomyocytes were cultures in 6-well plates overnight following isolation. […] FIGS. 10B and 10C show the same cultures following 96 hours of culture and the differenes between control and treated are quite striking.

[5] = system: neonatal rat cardiomyocytes; assay: ANP synthesis (competition binding ELISA of culture supernatants) in neonatal rat cardiomyocytes; assay type: cell-based
[6] = system: neonatal rat cardiomyocytes; assay: Hypertrophic response of neonatal rat cardiomyocytes (conclusions over all readouts); assay type: cell-based
[7] = system: isolated working rat heart; conditions: cited from earlier work
human atrial strips = conditions: cited from earlier work
PTBR = PTBR (Homo sapiens, UniProt P30536); conditions: cited from earlier work
Chain of PTBR (P30536 whole entry): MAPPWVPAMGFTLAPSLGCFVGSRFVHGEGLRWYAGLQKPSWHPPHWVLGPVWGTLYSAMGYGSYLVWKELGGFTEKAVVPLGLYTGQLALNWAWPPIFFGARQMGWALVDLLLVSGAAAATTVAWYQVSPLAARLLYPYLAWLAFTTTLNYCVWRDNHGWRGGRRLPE

[8] = system: isolated cardiac and smooth muscle; conditions: cited from earlier work
[9] = dogs; cited from earlier work
[10] = system: isolated rat heart preparation; conditions: cited from earlier work
[11] = following intravenous administration; cited from earlier work
[12] = system: [3H]diazepam binding to heart tissue; conditions: cited from earlier work
Chain of [3H]diazepam binding to heart tissue (P30536 2-169 limits assumed): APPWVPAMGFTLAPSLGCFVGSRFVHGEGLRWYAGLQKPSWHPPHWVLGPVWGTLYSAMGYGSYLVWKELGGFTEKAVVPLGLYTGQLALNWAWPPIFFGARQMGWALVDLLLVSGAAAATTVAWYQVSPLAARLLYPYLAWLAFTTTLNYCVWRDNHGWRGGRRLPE

[13] = Ro5-4864 at higher concentrations (10^-11-10^-8 M) with 10^-10 M PK11195, FIG. 8
[14] = concentrations greater than or equal to 10^-11 M, 48 hour incubation, vs control, FIG. 7
[15] = isolated perfused Langendorf rat heart
[16] = 10^-11 M PK11195 (so in the source), Ro5-4864 10^-12-10^-10 M, 48 hour, FIG. 8
[17] = compound alone, 10^-12-10^-8 M, 48 hour incubation, FIG. 7

CN1C(=O)CN=C(c2ccc(Cl)cc2)c2cc(Cl)ccc21 [Ro5-4864]
agonist induced increase in protein synthesis in the presence of PK11195 [1, 13]: able to overcome the inhibitory effect of PK11195 | increase in protein synthesis (incorporation of radiolabelled phenylalanine) [1, 14]: three-fold | coronary flow [2, 15]: increase coronary flow | heart rate and left ventricular contractility [2, 15]: without affecting | increase in luciferase activity (transcriptional activity from the β-MHC promoter) (β-MHC promoter): three-fold | duration of intracellular action potential and contractility [3]: decreased | cell size / morphology of cardiomyocytes ([4]; 24 hours of culture, FIG. 10A): larger cell size | cell size / morphology of cardiomyocytes ([4]; 96 hours of culture, FIGS. 10B and 10C): much larger and adherent to the extracellular matrix | agonist induced increase in ANP synthesis in the presence of PK11195 [5, 13]: able to overcome the inhibitory effect of PK11195 | increase in ANP synthesis [5, 14]: five-fold | hypertrophic response: increase in protein synthesis, ANP synthesis, transcription of the β-MHC gene reporter ([6]; summary of Example 2): three- to five-fold | effect on cardiac function [7]: depress cardiac function | depressant effect on the contraction amplitude (negative inotropic effect) (human atrial strips): 20%

trikontetraneuropeptide: shorter fragment of DBI (fragment 17-50) (KTKPSDEEMLFIYGHYKQATVGDINTERPGMLDF; Triakontatetraneuropeptide; UniProt P07108 17-50, looked up, fragment)
selectivity for PTBR relative to DBI (PTBR): more selective for PTBR

CN1C(=O)CN=C(c2ccccc2)c2cc(Cl)ccc21 [diazepam]
contractile force ([2]; Langendorf rat heart): increased contractile force | potentiation of the actions of adenosine [8]: potentiates | potentiation of the coronary vasodilator action of adenosine [9]: potentiates | inotropic effect [10]: transient negative inotropic effect followed by a positive inotropic response | duration of intracellular action potential and contractility [3]: less effective | vagal tone [11]: decrease

O=C1CN=C(c2ccccc2Cl)c2cc([N+](=O)[O-])ccc2N1 [clonazepam]
duration of intracellular action potential and contractility [3]: ineffective

OCCN(CCO)c1nc(N2CCCCC2)c2nc(N(CCO)CCO)nc(N3CCCCC3)c2n1 [dipyridamole]
competition of [3H]diazepam binding [12]: can compete

CCC(C)N(C)C(=O)c1cc2ccccc2c(-c2ccccc2Cl)n1 (centres unmarked) [PK11195, 1-(2-chlorophenyl)-N-methyl-N-(1-methylpropyl)-3-isoquinoline carboxamide]
effect on the Ro5-4864 induced increase in protein synthesis [1, 16]: prevented | effect on protein synthesis (incorporation of radiolabelled phenylalanine) [1, 17]: no effects | antagonism of the vasodilatory effect of Ro5-4864 [2, 15]: did not antagonize | antagonism of the positive inotropy induced by diazepam [10]: antagonized | reversal of the effects of Ro5-4864 [3]: reversed | effect on the Ro5-4864 induced increase in ANP synthesis [5, 16]: prevented | effect on ANP synthesis [5, 17]: no effects | reversal of the Ro5-4864 hypertrophic effect ([6]; coincubation of Ro5-4864 with PK11195): can be reversed | effect on cardiac function [7]: depress cardiac function | antagonism of the depressant effect of Ro5-4864 (human atrial strips): not antagonized
